# Laboratory results as given in patent US9890166B2, “Imidazopyrrolidine derivatives and their use in the treatment of disease” (NOVARTIS AG, priority 2013, dated 2018).
# pIC50: −log10 of the molar value.
# Legend:
# [1] = target: BRD4 (His-Brd4(44-477)) (Homo sapiens (Human), UniProt O60885); assay: TR-FRET in-vitro binding assay for BRD4; conditions: single determination or n ≧ 2 independent determinations, read-out: Biochemical IC50 BRD4
# In short: (§1)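 Compounds were serially diluted over eight concentrations and added to wells. TR-FRET signal was then measured.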
# [2] = target: BRD2 (His-Brd2(60-472)) (Homo sapiens (Human), UniProt P25440); assay: TR-FRET in-vitro binding assay for BRD2; conditions: single determination or n ≧ 2 independent determinations, read-out: Biochemical IC50 BRD2
# BRD2 (His-Brd2(60-472)), sequence (P25440 60-472): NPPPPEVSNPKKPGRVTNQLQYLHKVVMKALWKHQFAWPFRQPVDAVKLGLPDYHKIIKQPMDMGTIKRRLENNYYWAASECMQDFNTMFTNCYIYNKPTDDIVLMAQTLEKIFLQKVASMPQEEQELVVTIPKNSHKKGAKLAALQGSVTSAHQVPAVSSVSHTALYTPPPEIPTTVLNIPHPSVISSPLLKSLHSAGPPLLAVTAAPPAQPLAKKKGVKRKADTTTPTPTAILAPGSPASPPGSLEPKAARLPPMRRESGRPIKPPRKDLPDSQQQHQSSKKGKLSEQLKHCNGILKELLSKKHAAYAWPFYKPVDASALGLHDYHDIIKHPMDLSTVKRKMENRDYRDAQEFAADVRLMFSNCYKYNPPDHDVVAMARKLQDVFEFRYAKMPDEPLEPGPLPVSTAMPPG
# In short: as §1
# [3] = target: BRD3 (His-Brd3(20-477)) (Homo sapiens (Human), UniProt Q15059); assay: TR-FRET in-vitro binding assay for BRD3; conditions: single determination or n ≧ 2 independent determinations, read-out: Biochemical IC50 BRD3
# BRD3 (His-Brd3(20-477)), sequence (Q15059 20-477): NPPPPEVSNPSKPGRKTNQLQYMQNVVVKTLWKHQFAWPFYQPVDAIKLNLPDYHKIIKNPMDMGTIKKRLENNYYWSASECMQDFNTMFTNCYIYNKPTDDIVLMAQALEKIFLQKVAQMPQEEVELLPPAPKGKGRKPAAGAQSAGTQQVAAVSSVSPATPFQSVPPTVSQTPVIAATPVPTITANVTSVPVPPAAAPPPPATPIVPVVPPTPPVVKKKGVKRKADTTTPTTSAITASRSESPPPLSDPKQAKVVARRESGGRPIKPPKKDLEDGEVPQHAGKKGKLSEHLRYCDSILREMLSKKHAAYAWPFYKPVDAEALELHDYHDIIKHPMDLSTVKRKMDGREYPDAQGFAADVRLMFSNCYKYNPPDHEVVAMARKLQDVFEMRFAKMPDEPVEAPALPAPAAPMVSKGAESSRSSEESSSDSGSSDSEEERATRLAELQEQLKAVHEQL
# In short: as §1
# [4] = target: CREBBP bromodomain (His-CREBBP(1081-1197)) (Homo sapiens (Human), UniProt Q92793); assay: AlphaScreen in-vitro binding assay for CREBBP; conditions: single determination or n ≧ 2 independent determinations, read-out: Biochemical IC50 CREBBP
# CREBBP bromodomain (His-CREBBP(1081-1197)), sequence (Q92793 1081-1197): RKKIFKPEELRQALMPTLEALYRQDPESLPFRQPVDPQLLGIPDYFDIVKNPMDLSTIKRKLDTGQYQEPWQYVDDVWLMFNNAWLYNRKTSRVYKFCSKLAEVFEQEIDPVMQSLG
# In short: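 Reactions at 30 °C for 35 min, then Ni-chelate acceptor and streptavidin donor beads in HEPES pH 7.5, NaCl, Tween20, BSA, 60 min at room temperature. Eight-point compound series; IC50 by non-linear regression of percent inhibition.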
# [5] = target: nuclear BRD4-NUT foci in HCC2494 NUT midline carcinoma cells (Homo sapiens, UniProt O60885); assay: cell-based
# [6] = test system: THP-1 cells; assay: Cell growth inhibition assay (CellTiter-Glo), THP-1; conditions: for GI50: Homo sapiens, THP-1, read-out: THP-1 GI50; for THP-1 TGI: THP-1 cells, total growth inhibition, CellTiter-Glo;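 on all read-outs here: viability read as cellular ATP luminescence after 4 days, 3-fold dilution series from 10 µM, DMSO vehicle-treated cells taken as 100%, cell-free medium wells as −100%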
# [7] = test system: K-562 cells; assay: Cell growth inhibition assay (CellTiter-Glo), K-562; conditions: for GI50: Homo sapiens, K562, read-out: K-562 GI50; for K-562 TGI: K-562 cells, total growth inhibition, CellTiter-Glo;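 on all read-outs here: cellular ATP measured by luminescence after 4 days of exposure, 3-fold dilution series from 10 µM, DMSO vehicle-treated cells define 100%, cell-free medium wells −100%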
# [8] = test system: MV-4-11 cells; assay: Cell growth inhibition assay (CellTiter-Glo), MV-4-11; conditions: for GI50: Homo sapiens, MV4-11, read-out: MV-4-11 GI50; for MV-4-11 TGI: MV-4-11 cells, total growth inhibition, CellTiter-Glo;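 on all read-outs here: cellular ATP luminescence after 4 days, 3-fold dilution series from 10 µM top dose, vehicle (0.1% DMSO) set to 100%, cell-free medium set to −100%, day 0 corrected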
pIC50 [1],pIC50 [2],pIC50 [3],pIC50 [4],pIC50 [5],GI50 [6],GI50 [7],GI50 [8],SMILES,THP-1 TGI [6],K-562 TGI [7],MV-4-11 TGI [8]
7.54,7.54,7.57,5.36,8.51,0.009 µM,0.0481 µM,0.0108 µM,"CCn1c(C)nc2c1C(=O)N(c1cc(C)c3nnn(C)c3c1)C2c1ccc(Cl)cc1 (stereo not shown) [Example 121, 6-(4-chlorophenyl)-5-(3,7-dimethyl-3H-benzo[d][1,2,3]triazol-5-yl)-3-ethyl-2-methyl-5,6-dihydropyrrolo[3,4-d]imidazol-4(3H)-one]",0.0201 µM,>10 µM,0.0209 µM
6.92,6.44,6.32,< 4.43,6.39,0.377 µM,1.72 µM,0.209 µM,"COc1ncc(-c2nc3c([nH]2)C(c2ccc(Cl)cc2)N(c2cc(OC)c4nnc(C)n4c2)C3=O)c(OC)n1 (stereo not shown) [Example 127, 6-(4-chlorophenyl)-2-(2,4-dimethoxypyrimidin-5-yl)-5-(8-methoxy-3-methyl-[1,2,4]triazolo[4,3-a]pyridin-6-yl)-5,6-dihydropyrrolo[3,4-d]imidazol-4(1H)-one]",0.966 µM,>10 µM,0.317 µM
